The values that follow come from US20250064945A1 (Arvinas Operations, Inc., priority 2021, published 2025).

Structures are written as SMILES. Counter-ions that a name gives are not always drawn. A value given as a limit tells only on which side of the number the result lay.

Experiment [1] addresses T1, recombinant human 6×His-tagged-BRM (bromodomain-only; aa. 1377-1486) (Homo sapiens, UniProt P51531).
T1 construct: (bromodomain-only; aa; 1377-1486; NP_620614); made in house; host or cells: Escherichia coli
Put plainly: AlphaLISA competitive BRM binding assay. The following applies: 7 nM 6×His-BRM, 20 nM biotinylated probe. Here is the method:
AlphaLISA Competitive BRM Binding Assay
Compounds were serially diluted in 100% DMSO in 3-fold increments. An intermediate compound plate was created at 10% DMSO in AlphaLISA buffer (50 mM Hepes, pH 7.5, 50 mM NaCl, […] Brij-35, 0.1 mg/mL BSA) and then […] of compound transferred from the intermediate plate into a white, 384-OptiPlate (Perkin Elmer, #6007290). A solution of protein (recombinant human 6×His-tagged-BRM (bromodomain-only; aa. 1377-1486; NP_620614) expressed in Escherichia coli) and biotinylated probe are mixed and pre-incubated for 10 minutes. Following incubation, […] of protein/probe solution is added to each well of the 384-OptiPlate, resulting in final assay concentration of 7 nM protein (6×His-BRM) and 20 nM biotinylated probe. Compound and protein/probe solution were incubated at room temperature for 10 minutes. […] of anti-His conjugated AlphaLISA acceptor beads (PerkinElmer #AL128M), diluted 100× in AlphaLISA buffer, were added to each well of the assay plate. This addition was followed by a 10-minute incubation at room temperature, in the dark. Lastly, […] of streptavidin donor beads (PerkinElmer #6760002), diluted 100× in AlphaLISA buffer, were added to each well of the assay plate. Final assay plate was incubated for 15 minutes before read, signal is stable up to 4 hours after donor bead addition.
Assay plates were read using an Envision® multimode microplate reader (PerkinElmer #2105-0010) using the Europium/615 nm emission filter. Data is reported as percent displacement, 100% binding is based on the average fluorescent count (FC) of zero compound column and 0% binding is based on the average fluorescent count (FC) of zero protein (His-BRM) column. Percent displacement is calculated based on the following equation:
((100% Binding FC−Compound Well FC)/(100% Binding FC−0% Binding FC))*100
Data is fit using a 4-parameter non-linear regression analysis in GraphPad Prism.
Background: Alpha assays give light when donor and acceptor beads are brought close together.

A further experiment addresses T2, BRM (Homo sapiens, UniProt P51531).
T2 construct: In-Cell Western Screen of BRM Degradation in SW1573 Cells; endogenous in cells; host or cells: SW1573 cells
Put plainly: Western blot / In-Cell Western screen of BRM degradation in SW1573 cells. The format is cell-based. The following applies: overnight (18-20 hours) treatment; for Dmax: read-out: Dmax (%) (% degraded). The essentials:
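SW1573 cells treated overnight (18-20 hours) with compound at 0.1% final DMSO. BRM measured either by Western blot of RIPA lysates with alpha-tubulin control and chemiluminescent detection, or by In-Cell Western on fixed, permeabilized cells with LI-COR dual-channel read against alpha-tubulin; Dmax and DC50 derived.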
For orientation: Immunoblotting shows a protein as a band on a membrane.

`Oc1ccccc1-c1cn2cccnc2n1` [BRM1]: the Kd (commonly the concentration at which binding is half-saturated) in experiment [1] is 0.5 to 2.5 µM.

With `Nc1ccn2cc(-c3ccccc3O)nc2n1` [BRM2], in experiment [1], the Kd was < 0.5 µM.

With `C#Cc1cn2cc(-c3ccccc3O)nc2nc1N` [BRM3], the Kd in experiment [1] is < 0.5 µM.

Consider `Oc1ccn2cc(-c3ccccc3O)nc2n1` [BRM4, 2-(2-hydroxyphenyl) imidazo[1,2-a]pyrimidin-7-ol trifluoroacetate], for which, in experiment [1], the dissociation constant Kd was ≥ 10 µM.

For `Nc1nc2nc(-c3ccccc3O)cn2cc1C#Cc1ccncc1` [BRM5], the Kd in experiment [1] was 2.5 to 10 µM.

With `C#Cc1cc(N)nc2nc(-c3ccccc3O)cn12` [BRM6], the equilibrium dissociation constant (Kd) in experiment [1] was 2.5 to 10 µM.

`CN1CCN(c2cc(N)nc3nc(-c4ccccc4O)cn23)CC1` [BRM7]: in experiment [1], the Kd is ≥ 10 µM.

Regarding `Cn1cc(-c2cc(N)nc3nc(-c4ccccc4O)cn23)cn1` [BRM8], the Kd in experiment [1] was ≥ 10 µM.

Take `Nc1cc(C#Cc2ccncc2)n2cc(-c3ccccc3O)nc2n1` [BRM9]: the Kd in experiment [1] is ≥ 10 µM.

As to `CN1C2CCC1CN(c1cc(N)nc3nc(-c4ccccc4O)cn13)C2` [BRM10], the Kd in experiment [1] is ≥ 10 µM.

On to `Oc1ccccc1-c1cn2cc(C#Cc3ccncc3)cnc2n1` [BRM11], for which the Kd in experiment [1] was ≥ 10 µM.

Turning to `C#Cc1cnc2nc(-c3ccccc3O)cn2c1` [BRM12], in experiment [1], the dissociation constant (Kd) is ≥ 10 µM.

With `COCCOCC#Cc1cn2cc(-c3ccccc3O)nc2nc1N` [BRM13], the Kd in experiment [1] was < 0.5 µM.

Consider `CN1CCN(c2cnc3nc(-c4ccccc4O)cn3c2)CC1` [BRM14, 2-[6-(4-methylpiperazin-1-yl)imidazo[1,2-a]pyrimidin-2-yl]phenol], for which the Kd in experiment [1] is 0.5 to 2.5 µM.

Turning to `CN1CC2CCC(C1)N2c1cnc2nc(-c3ccccc3O)cn2c1` [BRM15, 2-[6-(3-methyl-3,8-diazabicyclo[3.2.1]octan-8-yl)imidazo[1,2-a]pyrimidin-2-yl] phenol], the Kd in experiment [1] was 2.5 to 10 µM.

Turning to `Cn1cc(-c2cnc3nc(-c4ccccc4O)cn3c2)cn1` [BRM16, 2-[6-(1-methylpyrazol-4-yl)imidazo[1,2-a]pyrimidin-2-yl] phenol], the Kd in experiment [1] lay in the range of 0.5 to 2.5 µM.

For `COC/C=C/c1cnc2nc(-c3ccccc3O)cn2c1` [BRM17, 2-[6-[(E)-3-methoxyprop-1-enyl]imidazo[1,2-a]pyrimidin-2-yl]phenol], the Kd in experiment [1] is 2.5 to 10 µM.

As for `Cn1cc(-c2cn3cc(-c4ccccc4O)nc3nc2N)cn1` [BRM18, 2-[7-amino-6-(1-methylpyrazol-4-yl)imidazo[1,2-a]pyrimidin-2-yl]phenol], the Kd in experiment [1] was < 0.5 µM.

Take `COC/C=C/c1cn2cc(-c3ccccc3O)nc2nc1N` [BRM19, 2-[7-amino-6-[(E)-3-methoxyprop-1-enyl]imidazo [1,2-a]pyrimidin-2-yl]phenol]: the Kd in experiment [1] was < 0.5 µM.

As to `CC(C)[C@@H](C(=O)N1C[C@H](O)C[C@H]1C(=O)N[C@@H](C)c1ccc(-c2ccnn2C)cc1)c1cc(N2CCC(CN3CCC(O[C@H]4C[C@H](Cn5cc(-c6cn7cc(-c8ccccc8O)nc7nc6N)cn5)C4)CC3)CC2)no1` [Compound 42, (2S,4R)-4-hydroxy-N-[(1S)-1-[4-(1-methyl-1H-pyrazol-5-yl)phenyl]ethyl]-1-[(2R)-3-methyl-2-{3-[4-({4-[(1r,3r)-3-({4-[7-amino-2-(2-hydroxyphenyl)imidazo[1,2-a]pyrimidin-6-yl]-1H-pyrazol-1-yl}methyl)cyclobutoxy]piperidin-1-yl}methyl)piperidin-1-yl]-1,2-oxazol-5-yl}butanoyl]pyrrolidine-2-carboxamide], on BRM, the 50% degradation concentration (DC50) (usually the concentration giving 50% degradation) is < 0.0025 µM and the Dmax (as a rule, the greatest extent of degradation seen) is > 75%.

`Cc1ncsc1-c1ccc([C@H](C)NC(=O)[C@@H]2C[C@@H](O)CN2C(=O)[C@@H](c2cc(N3CCC(CN4CCC(O[C@H]5C[C@H](Cn6cnc(-c7cn8cc(-c9ccccc9O)nc8nc7N)c6)C5)CC4)CC3)no2)C(C)C)cc1` [Compound 43, (2S,4R)-4-hydroxy-N-[(1S)-1-[4-(4-methyl-1,3-thiazol-5-yl)phenyl]ethyl]-1-[(2R)-3-methyl-2-{3-[4-({4-[(1r,3r)-3-({4-[7-amino-2-(2-hydroxyphenyl)imidazo[1,2-a]pyrimidin-6-yl]-1H-imidazol-1-yl}methyl)cyclobutoxy]piperidin-1-yl}methyl)piperidin-1-yl]-1,2-oxazol-5-yl}butanoyl]pyrrolidine-2-carboxamide]: at BRM, the DC50 lay within 0.0025 to 0.01 µM and the maximal degradation (Dmax) was > 75%.

For the compound `CC(C)[C@@H](C(=O)N1C[C@H](O)C[C@H]1C(=O)N[C@@H](C)c1ccc(-c2ccnn2C)cc1)c1cc(N2CCC(CN3CCC(O[C@H]4C[C@H](N5CCC(C/C=C/c6cn7cc(-c8ccccc8O)nc7nc6N)CC5)C4)CC3)CC2)no1` [Compound 44, (2S,4R)-4-hydroxy-N-[(1S)-1-[4-(1-methyl-1H-pyrazol-5-yl)phenyl]ethyl]-1-[(2R)-3-methyl-2-{3-[4-({4-[(1r,3r)-3-{4-[(2E)-3-[7-amino-2-(2-hydroxyphenyl)imidazo[1,2-a]pyrimidin-6-yl]prop-2-en-1-yl]piperidin-1-yl}cyclobutoxy]piperidin-1-yl}methyl)piperidin-1-yl]-1,2-oxazol-5-yl}butanoyl]pyrrolidine-2-carboxamide], at BRM, the DC50 is < 0.0025 µM and the greatest degradation seen (Dmax) was > 75%.

As to `CC(C)[C@@H](C(=O)N1C[C@H](O)C[C@H]1C(=O)N[C@@H](C)c1ccc(-c2ccnn2C)cc1)c1cc(N2CCC(CN3CCC(O[C@H]4C[C@H](OC/C=C/c5cn6cc(-c7ccccc7O)nc6nc5N)C4)CC3)CC2)no1` [Compound 45, (2S,4R)-4-hydroxy-N-[(1S)-1-[4-(1-methyl-1H-pyrazol-5-yl)phenyl]ethyl]-1-[(2R)-3-methyl-2-{3-[4-({4-[(1r,3r)-3-{[(2E)-3-[7-amino-2-(2-hydroxyphenyl)imidazo[1,2-a]pyrimidin-6-yl]prop-2-en-1-yl]oxy}cyclobutoxy]piperidin-1-yl}methyl)piperidin-1-yl]-1,2-oxazol-5-yl}butanoyl]pyrrolidine-2-carboxamide], at BRM, the half-maximal degradation concentration (DC50) is < 0.0025 µM and the Dmax is > 75%.

In the case of `CC(C)[C@@H](C(=O)N1C[C@H](O)C[C@H]1C(=O)N[C@@H](C)c1ccc(-c2ccnn2C)cc1)c1cc(OCCN2CCN(Cc3ccc(C/C=C/c4cn5cc(-c6ccccc6O)nc5nc4N)cc3)CC2)no1` [Compound 46, (2S,4R)-1-[(2R)-2-(3-{2-[4-({4-[(2E)-3-[7-amino-2-(2-hydroxyphenyl)imidazo[1,2-a]pyrimidin-6-yl]prop-2-en-1-yl]phenyl}methyl)piperazin-1-yl]ethoxy}-1,2-oxazol-5-yl)-3-methylbutanoyl]-4-hydroxy-N-[(1S)-1-[4-(1-methyl-1H-pyrazol-5-yl)phenyl]ethyl]pyrrolidine-2-carboxamide], on BRM, the DC50 fell in the range of 0.0025 to 0.01 µM and the Dmax was > 75%.
